Tests used:
Cryphonectria parasitica [1] = experiment: Fungicidal activity against Cryphonectria parasitica assessed as inhibition of fungal growth at 12.5 ug after 7 days; assay type: functional; settings: 168 h, read-out: DIZ
Cryphonectria parasitica [2] = experiment: Fungicidal activity against Cryphonectria parasitica assessed as inhibition of fungal growth at 25 ug after 7 days; assay type: functional; settings: 168 h, read-out: DIZ
Cryphonectria parasitica [3] = experiment: Fungicidal activity against Cryphonectria parasitica assessed as inhibition of fungal growth at 50 ug after 7 days; assay type: functional; settings: 168 h, read-out: DIZ
Cryphonectria parasitica [4] = experiment: Fungicidal activity against Cryphonectria parasitica assessed as inhibition of fungal growth at 100 ug after 7 days; assay type: functional; settings: 168 h, read-out: DIZ
Laetisaria fuciformis = experiment: Fungicidal activity against Laetisaria fuciformis assessed as inhibition of fungal growth at 10 to 1000 mg/L; assay type: functional, organism-based
Magnaporthiopsis poae = experiment: Fungicidal activity against Magnaporthe poae assessed as inhibition of fungal growth at 10 to 1000 mg/L; assay type: functional, organism-based
Rhizoctonia solani = experiment: Fungicidal activity against Rhizoctonia solani assessed as inhibition of fungal growth at 10 to 1000 mg/L; assay type: functional, organism-based

SMILES | zone of inhibition at 12.5 µg/disc (Cryphonectria parasitica [1]) | zone of inhibition at 25 µg/disc (Cryphonectria parasitica [2]) | zone of inhibition at 50 µg/disc (Cryphonectria parasitica [3]) | zone of inhibition at 100 µg/disc (Cryphonectria parasitica [4]) | growth inhibition (GI) (Laetisaria fuciformis) | growth inhibition (GI) (Magnaporthiopsis poae) | growth inhibition (GI) (Rhizoctonia solani)
COC(=O)c1c[nH]c2ccccc12 | 4 mm | 6 mm | 8 mm | 11 mm |  |  | 
O=Cc1c[nH]c2ccccc12 [3-FORMYLINDOLE] | 7 mm | 10 mm | 13 mm | 15 mm |  |  | 
CC(C)=CCC[C@@](C)(O)[C@H]1CC[C@](C)(O)[C@@H]1C [CYCLONERODIOL] | 0 mm | 0 mm | 0 mm | 13 mm |  |  | 
CC(=O)NC(C)=O [DIACETAMIDE] | 3 mm | 7 mm | 10 mm | 14 mm |  |  | 
O=C(O)Cc1c[nH]c2ccccc12 [INDOLE-3-ACETIC ACID] | 12 mm | 14 mm | 16 mm | 21 mm | Dose-dependent effect | Dose-dependent effect | Dose-dependent effect
OCCc1c[nH]c2ccccc12 [TRYPTOPHOL] | 7 mm | 9 mm | 11 mm | 14 mm | Dose-dependent effect | Dose-dependent effect | Dose-dependent effect

— ChEMBL document CHEMBL3045451, “Isolation and characterization of fungal inhibitors from Epichloë festucae” (2000)
